Data on 14 molecules can be found in US5952368A, “5-aroylpyrrol-2-ylmethylarene derivatives” (Syntex (U.S.A.) Inc., priority 1997, dated 1999).

In assay [1] the test system is acetic acid-induced writhing. The assay is described as follows: Analgesic activity: Acetic Acid-induced Rat Writhing Assay. The class given is in vivo. The conditions noted are these: 10 mg/Kg, oral, male Sprague Dawley rats. The text has this: The analgesic activity of compounds of this invention may be determined by the Acetic Acid-induced Rat Writhing Assay, using a modification of the method described in Berkenkopf, J. W. and Weichman, B. M. "Production of Prostacyclin in Mice following Intraperitoneal Injection of Acetic Acid, Phenylbenzoquinone and Zymosan: Its Role in the Writhing Response" Prostaglandins: 36: 693-70 (1988). This assay is one of several acute assays which have been used to assess the analgesic activity of NSAIDs, and is considered predictive of human efficacy. The test materials were administered orally to male Sprague Dawley rats in a volume of 1 ml/100 g body weight as solutions or suspensions in an aqueous vehicle containing 0.9% NaCl 0.5% sodium carboxymethyl-cellulose, 0.4% polysorbate 80, 0.9% benzyl alcohol and 97.3% water. Control rats received vehicle alone. One hour after compound administration, 0.3 ml/100 g body weight of 0.75% solution of acetic acid was injected intraperitoneally. The acetic acid injection induces a series of characteristic writhing responses, which were counted over the period between 15 and 30 minutes after the injection. The analgesic activity of test materials is expressed as the percentage inhibition of writhing in the test group relative to the control group.
In general terms: An intraperitoneal irritant provokes the stretching counted in writhing tests.

Another assay concerns the target T1, COX II (Homo sapiens, UniProt P35354).
T1 construct: made in house; baculovirus-infected insect cells by own knowledge of the cited Barnett et al. 1994
T1 sequence (P35354 18-604): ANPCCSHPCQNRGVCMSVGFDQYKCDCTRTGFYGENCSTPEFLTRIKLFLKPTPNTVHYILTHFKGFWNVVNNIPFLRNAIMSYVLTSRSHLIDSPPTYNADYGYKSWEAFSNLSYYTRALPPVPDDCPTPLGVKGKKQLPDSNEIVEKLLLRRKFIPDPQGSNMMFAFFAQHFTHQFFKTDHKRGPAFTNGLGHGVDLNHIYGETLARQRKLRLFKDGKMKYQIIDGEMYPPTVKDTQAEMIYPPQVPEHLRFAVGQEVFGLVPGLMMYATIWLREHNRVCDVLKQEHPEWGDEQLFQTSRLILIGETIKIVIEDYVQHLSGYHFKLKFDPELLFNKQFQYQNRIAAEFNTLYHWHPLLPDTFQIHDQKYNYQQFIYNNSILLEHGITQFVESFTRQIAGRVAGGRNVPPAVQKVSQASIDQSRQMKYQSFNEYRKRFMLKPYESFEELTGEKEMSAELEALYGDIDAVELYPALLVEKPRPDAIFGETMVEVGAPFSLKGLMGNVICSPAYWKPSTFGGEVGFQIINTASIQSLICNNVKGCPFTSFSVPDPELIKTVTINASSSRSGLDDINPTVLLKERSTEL
The assay is described as follows: Inhibition of COX II in vitro (radiometric assay, 14C arachidonic acid, partially purified enzyme). It counts as biochemical. Conditions: partially purified COX II, 20 micromolar arachidonic acid, 10 min preincubation, room temperature; read-out: COX II IC50. The protocol: (§1) The COX I and COX II inhibitory activity of compounds of this invention in vitro was determined using partially purified COX I and COX II enzymes, prepared as described in J. Barnett et al., Biochim. Biophys. Acta, 1209:130--139 (1994).
(§2) COX I and COX II samples were diluted with Tris-HCl buffer (50 mM Tris-HCl pH 7.9) containing 2 mM EDTA and 10% glycerol and reconstituted by incubating first with 2 mM phenol for 5 minutes and then with 1 micromolar hematin for an additional 5 minutes. 125 μl of the reconstituted COX I or COX II enzyme were preincubated for 10 minutes at room temperature in a shaking water bath with the compounds of the invention dissolved in 2-15 μl of DMSO or the carrier vehicles (control samples). The enzyme reaction was initiated by adding 25 μl of 1-[14C] arachidonic acid (80,000-100,000 cpm/tube; 20 micromolar final concentration) and the reaction was allowed to continue for an additional 45 seconds. The reaction was terminated by adding 100 μl of 2N HCl and 750 μl water. An aliquot (950 μl) of the reaction mixture was loaded onto a 1 ml C18 Sep-Pak column (J. T. Baker, Phillipsburg, N.J.) which had been previously washed with 2-3 ml methanol and equilibrated with 5-6 ml distilled water. Oxygenated products were quantitatively eluted with 3 ml of acetonitrile/water/acetic acid (50:50:0.1, v/v) and the radioactivity in the eluate determined in a scintillation counter.

The next assay deals with air pouch PGE2 formation. Description: Inhibition of eicosanoid (PGE2) synthesis in vivo: carrageenan air-pouch model in rats. Also noted: species or system rat. The conditions noted are these: oral, male rats. The protocol: In this assay, an air-pouch is created in the rat and the PGE2 levels in the air-pouch exudate are measured by enzyme immunoassay. Briefly, male rats were anesthetized using a 60:40 CO2 :O2 mixture and subsequently injected subcutaneously with 20 ml of sterilized air, under aseptic conditions, in the proximal area of the dorsum. This injection of sterile air causes the creation of a subcutaneous "air pouch". The next day, a further 10 ml of sterile air was injected into the previously formed pouch using the same technique. […] Control rats received vehicle alone. After 30 minutes, 5 ml of a 0.5% solution of carrageenan (Sigma, Lambda Type IV) was injected into the air pouch. The rats were euthanized 3 or 6 h after the compound administration. […] The total exudate volume was recorded, and the samples were analyzed for PGE2 and 6-keto PGF1 by ELISA (Titerzyme®, PerSeptive Diagnostics) and TxB2 by radioimmuno assay (New England Nuclear Research, Catalog No. NEK-037), according to the manufacturer's directions.
The mean concentrations of PGE2 were calculated for each group. The anti-inflammatory activity of test materials is expressed as the percent inhibition of PGE2 formation in the test group relative to the control group.

The subject of assay [2] is carrageenan-induced paw edema. Description: Anti-inflammatory activity: inhibition of carrageenan-induced paw edema in the rat. Conditions: 10 mg/Kg, oral, female rats, 3 h after carrageenan. It counts as in vivo. As for the experimental part: The anti-inflammatory activity of compounds of this invention was determined by measuring the inhibition of carrageenan-induced paw edema in the rat, using a modification of the method described in Winter C. A. et al. (1962) "Carrageenan-Induced Edema in Hind Paw of the Rat as an Assay for Anti-inflammatory Drugs". Proc. Soc. Exp. Biol. Med. 111: 544-547. This assay has been used as a primary in vivo screen for anti-inflammatoryactivity of most NSAIDs, and is considered predictive of human efficacy. Briefly, test materials were administered orally to female rats in a volume of 1 ml prepared as solutions or suspensions in an aqueous vehicle containing 0.9% NaCl, 0.5% sodium carboxymethyl-cellulose, 0.4% polysorbate 80, 0.9% benzyl alcohol and 97.3% distilled water. Control rats received vehicle alone. After 1 h 0.05 ml of a 0.5% solution of Carrageenan (Type IV Lambda, Sigma Chemical Co.) in 0.9% saline was injected into the subplantar region of the right hind paw. Three hours later the rats were euthanized in a carbon dioxide atmosphere; hind paws were removed by severing at the tatso-crural joint; and the left and right paws were weighed. The increase in weight of the right paw over the left paw was obtained for each animal and the mean increases were calculated for each group. The anti-inflammatory activity of the test materials is expressed as the percent inhibition of the increase in hind paw weight of the test group relative to the vehicle-dosed control group.
(The carrageenan paw model is a standard test of acute inflammation.)

Another assay has as its target T2, COX I (Homo sapiens, UniProt P23219).
T2 construct: made in house; baculovirus-infected insect cells by own knowledge of the cited Barnett et al. 1994
The assay is described as follows: Inhibition of COX I in vitro (radiometric assay, 14C arachidonic acid, partially purified enzyme). The class given is biochemical. The conditions noted are these: partially purified COX I, 20 micromolar arachidonic acid, 10 min preincubation, room temperature; read-out: COX I IC50. The protocol: as §1, §2

Each structure is given as a SMILES string.

T2 sequence (P23219 24-599): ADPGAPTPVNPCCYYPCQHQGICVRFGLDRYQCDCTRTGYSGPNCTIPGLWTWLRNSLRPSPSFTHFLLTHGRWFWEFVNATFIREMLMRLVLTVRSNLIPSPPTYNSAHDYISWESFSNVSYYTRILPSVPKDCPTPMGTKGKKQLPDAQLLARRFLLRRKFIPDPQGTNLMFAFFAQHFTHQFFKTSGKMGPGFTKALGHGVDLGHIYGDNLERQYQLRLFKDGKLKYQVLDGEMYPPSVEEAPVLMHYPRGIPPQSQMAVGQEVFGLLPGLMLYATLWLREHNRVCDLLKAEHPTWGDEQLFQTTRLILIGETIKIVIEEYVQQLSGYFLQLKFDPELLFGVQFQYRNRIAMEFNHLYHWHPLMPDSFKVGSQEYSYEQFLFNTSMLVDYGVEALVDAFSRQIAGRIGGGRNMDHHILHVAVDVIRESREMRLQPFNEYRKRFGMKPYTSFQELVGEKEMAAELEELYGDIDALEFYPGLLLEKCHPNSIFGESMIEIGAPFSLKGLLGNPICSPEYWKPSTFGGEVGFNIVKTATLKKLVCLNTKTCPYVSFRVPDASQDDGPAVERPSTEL

Take `COc1ccc(C(=O)c2c(C)cc(Cc3ccc(NS(=O)(=O)CCO)cc3F)n2C)cc1` [compound 98, N-{3-Fluoro-4-[5-(4-methoxybenzoyl)-1,4-dimethyl-1H-pyrrol-2-ylmethyl]phenyl}-2-(hydroxy)ethanesulfonamide]: in assay [1], the “% Inhibition of writhing responses” value is given as 71%. The values for the concentration for half-maximal inhibition (IC50) at COX II and on COX I were 0.23 µM and less than 0.1 µM, respectively. The “% Inhibition of air pouch PGE2 formation” value in the assay with air pouch PGE2 formation (10 mg/Kg, 3 hr) was determined as 98%. In assay [2], the “% Inhibition (of the increase in hind paw weight)” value is 42%.
For `Cc1cc(Cc2ccc(NS(C)(=O)=O)cc2C#N)n(C)c1C(=O)c1ccc(Cl)cc1` [compound 19, N-{3-Cyano-4-[5-(4-chlorobenzoyl)-1,4-dimethyl-1H-pyrrol-2-ylmethyl]phenyl}-methanesulfonamide], the figures for the concentration for half-maximal inhibition (IC50) on COX II and on COX I were 0.08 µM and 0.76 µM, respectively. Further, the “% Inhibition of air pouch PGE2 formation” value in the assay with air pouch PGE2 formation (10 mg/Kg, 3 hr) is reported as 74%. Besides, in assay [2], the “% Inhibition (of the increase in hind paw weight)” value is reported as 36%.
For `Cc1ccc(C(=O)c2ccc(Cc3ccc(NS(=O)(=O)CCO)cc3F)n2C)c(C)c1` [compound 48, N-{3-Fluoro-4-[5-(2,4-dimethylbenzoyl)-1-methyl-1H-pyrrol-2-ylmethyl]phenyl}-2-(hydroxy)ethanesulfonamide], the values for the IC50 at COX II and on COX I were 0.08 µM and 61 µM, respectively. Besides, in the assay on air pouch PGE2 formation (30 mg/Kg, 3 hr), the “% Inhibition of air pouch PGE2 formation” value was 64%. Besides, the “% Inhibition (of the increase in hind paw weight)” value in assay [2] came out at 35%.
Turning to `COc1ccc(C(=O)c2ccc(Cc3ccc(NS(C)(=O)=O)cn3)n2C)cc1` [compound 288, N-{2-[5-(4-Methoxybenzoyl)-1-methyl-1H-pyrrol-2-ylmethyl]pyridin-5-yl}-methanesulfonamide], the IC50 at COX II was 0.55 µM; at COX I it was 235 µM. In addition, the “% Inhibition of air pouch PGE2 formation” value in the assay with air pouch PGE2 formation (10 mg/Kg, 3 hr) was 53%. In assay [2], the “% Inhibition (of the increase in hind paw weight)” value is listed as 20%.
As for `Cc1cc(Cc2ccc(NS(N)(=O)=O)cc2F)n(C)c1C(=O)c1ccc(Cl)cc1` [compound 146, 1-{3-Fluoro-4-[5-(4-chlorobenzoyl)-1,4-dimethyl-1H-pyrrol-2-ylmethyl]phenyl}sulfamide], the results for the IC50 at COX II and on COX I were 0.06 µM and 2.9 µM, respectively. The “% Inhibition of air pouch PGE2 formation” value with air pouch PGE2 formation (10 mg/Kg, 3 hr) is 93%. For the same molecule, the “% Inhibition (of the increase in hind paw weight)” value in assay [2] is on record as 40%.
`Cc1cc(Cc2ccc(O)cc2)n(C)c1C(=O)c1ccc(Cl)cc1` [compound 343, 4-{5-(4-Chlorobenzoyl)-1,4-dimethyl-1H-pyrrol-2-ylmethyl}phenol]: the results for the concentration for half-maximal inhibition (IC50) on COX II and at COX I were 0.54 µM and 6.6 µM, respectively. Also, the “% Inhibition (of the increase in hind paw weight)” value in assay [2] was found to be 35%.
As to `COc1ccc(C(=O)c2c(C)cc(Cc3ncc(NS(C)(=O)=O)cc3Cl)n2C)cc1` [compound 284, N-{3-Chloro-2-[5-(4-methoxybenzoyl)-1,4-dimethyl-1H-pyrrol-2-ylmethyl]pyridin-5-yl}-methanesulfonamide], the IC50 is 0.5 µM at COX II and 22 µM at COX I. In the assay with air pouch PGE2 formation (10 mg/Kg, 3 hr), the “% Inhibition of air pouch PGE2 formation” value was determined as 65%.
The like results for `CSc1ccc(C(=O)c2c(C)cc(Cc3ccc(N)cn3)n2C)cc1` [compound 334, {2-[5-(4-Methylthiobenzoyl)-1,4-dimethyl-1H-pyrrol-2-ylmethyl]pyridin-5-yl}amine] were, in that order, 0.64 µM, 18.3 µM and 44%.
Regarding `Cc1ccc(C(=O)c2ccc(Cc3ccc(NS(N)(=O)=O)cc3F)n2C)c(C)c1` [compound 165, 1-{3-Fluoro-4-[5-(2,4-dimethylbenzoyl)-1-methyl-1H-pyrrol-2-ylmethyl]phenyl}sulfamide], the IC50 is 0.095 µM at COX II and 16.8 µM on COX I. Moreover, in the assay on air pouch PGE2 formation (10 mg/Kg, 3 hr), the “% Inhibition of air pouch PGE2 formation” value was determined as 52%. In addition, in assay [2], the “% Inhibition (of the increase in hind paw weight)” value amounted to 17%.
As for `Cc1ccc(C(=O)c2ccc(Cc3ccc(NS(C)(=O)=O)cn3)n2C)cc1` [compound 271, N-{2-[5-(4-Methylbenzoyl)-1-methyl-1H-pyrrol-2-ylmethyl]pyridin-5-yl}methane-sulfonamide], the concentration for half-maximal inhibition (IC50) is 0.43 µM on COX II and 89 µM on COX I. In the assay on air pouch PGE2 formation (10 mg/Kg, 3 hr), the “% Inhibition of air pouch PGE2 formation” value is 56%.
For the molecule `CNC(=S)Nc1ccc(Cc2cc(C)c(C(=O)c3ccc(Cl)cc3)n2C)cc1` [compound 236], the figures for the half-inhibitory concentration (IC50) at COX II and at COX I were 0.51 µM and 15 µM, respectively. The “% Inhibition of air pouch PGE2 formation” value with air pouch PGE2 formation (30 mg/Kg, 6 hr) came out at 71%.
Consider `Cc1cc(Cc2ccc(NC(=S)Nc3ccccc3)cn2)n(C)c1C(=O)c1ccc(Cl)cc1` [compound 316, 1-{2-[5-(4-Chlorobenzoyl)-1,4-dimethyl-1H-pyrrol-2-ylmethyl]pyridin-5-yl}-3-phenyl-2-thiourea], for which the IC50 was determined as 0.2 µM at COX II and 360 µM at COX I.
As to `Cc1cc(Cc2ccc(NS(N)(=O)=O)cc2)n(C)c1C(=O)c1ccccc1` [compound 177, 1-{4-[5-benzoyl-1,4-dimethyl-1H-pyrrol-2-ylmethyl]phenyl}sulfamide], the results for the IC50 on COX II and on COX I were 0.3 µM and 0.79 µM, respectively.
On to `COc1ccc(C(=O)c2ccc3n2CCC3c2ccc(NS(N)(=O)=O)cc2Cl)cc1` (stereo not shown) [compound 223, 1-{3-Chloro-4-[5-(4-methoxybenzoyl)-1,2-dihydro-3H-pyrrolizin-1-yl]phenyl}sulfamide], for which the IC50 is 0.029 µM on COX II and 0.064 µM on COX I.

In general, IC50 refers to the concentration that gives 50% inhibition.
